Measurements as given in patent US20120178915A1, “PYRIMIDINE DERIVATIVES AND ANALOGS, PREPARATION METHOD AND USE THEREOF” (priority 2009, published 2012).
In brackets after ≈: the same amount, converted by molar mass. Read-outs that look alike come from different tables or passages of the source.

Tests used:
[1] = system: Streptococcus agalactiae B; assay: microbe, parasite or virus in culture; format: cell-based; conditions: 37° C., 24 h, read-out: Minimum Inhibitory Concentration, MIC
MIC broth microdilution = format: cell-based; conditions: Microorganism 33, Dermatophytosis; 37° C., 24 h; read-out: Minimum Inhibitory Concentration, MIC
Clostridium perfringens = assay: microbe, parasite or virus in culture; format: cell-based; conditions: 24 h, read-out: Minimum Inhibitory Concentration, MIC
[2] = system: Enterococcus faecalis F2518 (VRE); assay: microbe, parasite or virus in culture; format: cell-based; conditions: 24 h, read-out: Minimum Inhibitory Concentration, MIC
[3] = system: Streptococcus pneumoniae 62; assay: microbe, parasite or virus in culture; format: cell-based; conditions: 37° C., 24 h, read-out: Minimum Inhibitory Concentration, MIC
[4] = system: Enterococcus faecalis 19433; assay: microbe, parasite or virus in culture; format: cell-based; conditions: 37° C., 24 h, read-out: Minimum Inhibitory Concentration, MIC
green Streptococcus 1009 = assay: microbe, parasite or virus in culture; format: cell-based; conditions: 37° C., 24 h, read-out: Minimum Inhibitory Concentration, MIC
[5] = system: Enterococcus faecalis 583 (VRE); assay: microbe, parasite or virus in culture; format: cell-based; conditions: 24 h, read-out: Minimum Inhibitory Concentration, MIC
Bacillus cereus 2 = assay: microbe, parasite or virus in culture; format: cell-based; conditions: 37° C., 24 h, read-out: Minimum Inhibitory Concentration, MIC
[6] = system: Corynebacterium diphtheriae; assay: microbe, parasite or virus in culture; format: cell-based; conditions: 37° C., 24 h, read-out: Minimum Inhibitory Concentration, MIC
[7] = system: Enterococcus faecalis 29212; assay: microbe, parasite or virus in culture; format: cell-based; conditions: 37° C., 24 h, read-out: Minimum Inhibitory Concentration, MIC
[8] = system: Staphylococcus aureus 703 (MRSA); assay: microbe, parasite or virus in culture; format: cell-based; conditions: 24 h, read-out: Minimum Inhibitory Concentration, MIC
Bacillus subtilis 82 = assay: microbe, parasite or virus in culture; format: cell-based; conditions: 37° C., 24 h, read-out: Minimum Inhibitory Concentration, MIC
Gram-positive Bacteria = format: cell-based; conditions: Enterococcus faecalis (VRE), Staphylococcus aureus (MRSA), Streptococcus pneumoniae 6303 (PRSP); Bacillus cereus, Bacillus subtilis, Enterococcus faecalis, Staphylococcus aureus, Streptococcus pneumoniae, Streptococcus agalactiae B and streptococci 4
[9] = system: Staphylococcus aureus 704 (MRSA); assay: microbe, parasite or virus in culture; format: cell-based; conditions: 24 h, read-out: Minimum Inhibitory Concentration, MIC
[10] = system: Streptococcus pneumoniae 6301; assay: microbe, parasite or virus in culture; format: cell-based; conditions: 37° C., 24 h, read-out: Minimum Inhibitory Concentration, MIC
MRSA 2152 = assay: Antibacterial studies in vivo, survival of mice infected with MRSA 2152; conditions: dose mg/kg: ciprofloxacin 20, 3: 30, 7: 40, 21: 50, 33: 25, 70: 70
Bacillus anthracis 1 = assay: microbe, parasite or virus in culture; format: cell-based; conditions: Bacillus anthracis, 1, 24 h, read-out: Minimum Inhibitory Concentration, MIC
[11] = system: Enterococcus fecal F631 (VRE); assay: organism not typed; format: cell-based; conditions: 24 h, read-out: Minimum Inhibitory Concentration, MIC
[12] = system: Enterococcus faecalis 51299; assay: microbe, parasite or virus in culture; format: cell-based; conditions: Enterococcus faecalis, 51299, 24 h, read-out: Minimum Inhibitory Concentration, MIC
Streptococcus 10342 = assay: MIC broth microdilution; format: cell-based; conditions: 37° C., 24 h, read-out: Minimum Inhibitory Concentration, MIC
Oral candidiasis = assay: MIC broth microdilution; format: cell-based; conditions: Microorganism 32, Oral candidiasis; 37° C., 24 h; read-out: Minimum Inhibitory Concentration, MIC
[13] = system: Streptococcus pneumoniae 6303 (PRSP); assay: microbe, parasite or virus in culture; format: cell-based; conditions: 24 h, read-out: Minimum Inhibitory Concentration, MIC
Clostridium tetani = assay: microbe, parasite or virus in culture; format: cell-based; conditions: 24 h
[14] = system: Staphylococcus aureus 29231; assay: microbe, parasite or virus in culture; format: cell-based; conditions: 37° C., 24 h, read-out: Minimum Inhibitory Concentration, MIC
Pyogenic Streptococcus = assay: microbe, parasite or virus in culture; format: cell-based; conditions: 37° C., 24 h, read-out: Minimum Inhibitory Concentration, MIC
[15] = system: Staphylococcus aureus 43300 (MRSA); assay: microbe, parasite or virus in culture; format: cell-based; conditions: 24 h, read-out: Minimum Inhibitory Concentration, MIC
[16] = system: Streptococcus pneumoniae 10351; assay: microbe, parasite or virus in culture; format: cell-based; conditions: 37° C., 24 h, read-out: Minimum Inhibitory Concentration, MIC
[17] = system: Staphylococcus aureus 705 (MRSA); assay: microbe, parasite or virus in culture; format: cell-based; conditions: 24 h, read-out: Minimum Inhibitory Concentration, MIC
Bacillus subtilis 168 = assay: microbe, parasite or virus in culture; format: cell-based; conditions: 37° C., 24 h, read-out: Minimum Inhibitory Concentration, MIC
[18] = system: Streptococcus bovis 10035; assay: microbe, parasite or virus in culture; format: cell-based; conditions: Streptococcus equinus, 37° C., 24 h, read-out: Minimum Inhibitory Concentration, MIC
Bacillus cereus 246 = assay: microbe, parasite or virus in culture; format: cell-based; conditions: 37° C., 24 h, read-out: Minimum Inhibitory Concentration, MIC
[19] = system: Streptococcus pneumoniae M2; assay: microbe, parasite or virus in culture; format: cell-based; conditions: 37° C., 24 h, read-out: Minimum Inhibitory Concentration, MIC
[20] = system: Enterococcus faecalis 1513 (VRE); assay: microbe, parasite or virus in culture; format: cell-based; conditions: 24 h, read-out: Minimum Inhibitory Concentration, MIC
[21] = read-out: Minimum Inhibitory Concentration, MIC, Microorganism 29, Clostridium tetani, 37° C.
[22] = read-out: Minimum Inhibitory Concentration, MIC, Microorganism 30, Clostridium tetani (second line of that name), 37° C.

| Compound | MIC [1] [µM] | MIC (MIC broth microdilution) [µM] | MIC (Clostridium perfringens) [µM] | MIC [2] [µM] | MIC [3] [µM] | MIC [4] [µM] | MIC (green Streptococcus 1009) [µM] | MIC [5] [µM] | MIC (Bacillus cereus 2) [µM] | MIC [6] [µM] | MIC [7] [µM] | MIC [8] [µM] | MIC (Bacillus subtilis 82) [µM] | inhibition of growth (conclusion from MICs) (Gram-positive Bacteria) | MIC [9] [µM] | MIC [10] [µM] | MIC (Bacillus anthracis 1) [µM] | MIC [11] [µM] | MIC [12] [µM] | MIC (Streptococcus 10342) [µM] | further results |
| --- | --- | --- | --- | --- | --- | --- | --- | --- | --- | --- | --- | --- | --- | --- | --- | --- | --- | --- | --- | --- | --- |
| Cc1nn2c(=O)cc(-c3ccc(C(F)(F)F)cc3)[nH]c2c1-c1ccc(Cl)cc1Cl [Compound 7] | 0.22 (≈ 0.0964 µg/mL) | 36.5 (≈ 16 µg/mL) | 50.2 (≈ 22 µg/mL) | 0.23 (≈ 0.101 µg/mL) | 0.19 (≈ 0.0833 µg/mL) | 0.61 (≈ 0.267 µg/mL) | 1.35 (≈ 0.592 µg/mL) | 0.3 (≈ 0.131 µg/mL) | 0.63 (≈ 0.276 µg/mL) | 71.2 (≈ 31.2 µg/mL) | 0.31 (≈ 0.136 µg/mL) | 2.5 (≈ 1.1 µg/mL) | 0.02 (≈ 0.00876 µg/mL) | significantly inhibited the growth | 0.32 (≈ 0.14 µg/mL) | 5 (≈ 2.19 µg/mL) | 80.3 (≈ 35.2 µg/mL) | 0.63 (≈ 0.276 µg/mL) | 2.5 (≈ 1.1 µg/mL) | 0.25 (≈ 0.11 µg/mL) | Survival rate (%) (life prolongation rate) (MRSA 2152; (survival days of test group − blank group)/blank group ×100%, MRSA 2152 mice, tail vein): 330.7%; Survival (MRSA 2152; mice inoculated intraperitoneally with MRSA 2152, test compound by tail vein, repeated after six hours, saline 1.3 days): 5.6 days; MIC (Oral candidiasis): 35.6 µM (≈ 15.6 µg/mL); MIC [13]: 0.21 µM (≈ 0.092 µg/mL); MIC (Clostridium tetani; [21]): 50.3 µM (≈ 22 µg/mL); MIC (Clostridium tetani; [22]): 22.1 µM (≈ 9.69 µg/mL); MIC [14]: 5 µM (≈ 2.19 µg/mL); MIC (Pyogenic Streptococcus): 2.5 µM (≈ 1.1 µg/mL); MIC [15]: 2.5 µM (≈ 1.1 µg/mL); MIC [16]: 1.25 µM (≈ 0.548 µg/mL); MIC [17]: 0.55 µM (≈ 0.241 µg/mL); MIC (Bacillus subtilis 168): 0.22 µM (≈ 0.0964 µg/mL); MIC [18]: 2.25 µM (≈ 0.986 µg/mL); MIC (Bacillus cereus 246): 1.25 µM (≈ 0.548 µg/mL); MIC [19]: 2.5 µM (≈ 1.1 µg/mL); MIC [20]: 0.65 µM (≈ 0.285 µg/mL) |
| Cc1nn2c(=O)cc(-c3ccc(C(F)(F)F)nc3)[nH]c2c1-c1ccc(Cl)cc1Cl [Compound 8] | 0.56 (≈ 0.246 µg/mL) | 31.8 (≈ 14 µg/mL) | 61.3 (≈ 26.9 µg/mL) | 0.32 (≈ 0.141 µg/mL) | 0.63 (≈ 0.277 µg/mL) | 11.5 (≈ 5.05 µg/mL) | 0.3 (≈ 0.132 µg/mL) | 0.31 (≈ 0.136 µg/mL) | 0.65 (≈ 0.285 µg/mL) | 30.3 (≈ 13.3 µg/mL) | 0.66 (≈ 0.29 µg/mL) | 1.23 (≈ 0.54 µg/mL) | 1.35 (≈ 0.593 µg/mL) | significantly inhibited the growth | 10.3 (≈ 4.52 µg/mL) | 2.5 (≈ 1.1 µg/mL) | 56.8 (≈ 24.9 µg/mL) | 0.04 (≈ 0.0176 µg/mL) | 0.36 (≈ 0.158 µg/mL) | 0.3 (≈ 0.132 µg/mL) | MIC (Oral candidiasis): 20.3 µM (≈ 8.92 µg/mL); MIC [13]: 1.23 µM (≈ 0.54 µg/mL); MIC (Clostridium tetani; [21]): 70.3 µM (≈ 30.9 µg/mL); MIC (Clostridium tetani; [22]): 50.6 µM (≈ 22.2 µg/mL); MIC [14]: 10.3 µM (≈ 4.52 µg/mL); MIC (Pyogenic Streptococcus): 0.63 µM (≈ 0.277 µg/mL); MIC [15]: 0.6 µM (≈ 0.264 µg/mL); MIC [16]: 0.04 µM (≈ 0.0176 µg/mL); MIC [17]: 50.6 µM (≈ 22.2 µg/mL); MIC (Bacillus subtilis 168): 0.66 µM (≈ 0.29 µg/mL); MIC [18]: 10.5 µM (≈ 4.61 µg/mL); MIC (Bacillus cereus 246): 2.6 µM (≈ 1.14 µg/mL); MIC [19]: 1.25 µM (≈ 0.549 µg/mL); MIC [20]: 0.16 µM (≈ 0.0703 µg/mL) |
